We go through three molecules from US9884806B2, “Cyclic vinylogous amides as bromodomain inhibitors” (ICAHN SCHOOL OF MEDICINE AT MOUNT SINAI, priority 2013, dated 2018).

In experiment [1] the test system is NO release in RAW264.7 cells. Kind of experiment: LPS-stimulated nitric oxide (NO) release in murine macrophage RAW264.7 cells (Griess reaction). The conditions noted are these: Mus musculus; RAW264.7 cells, LPS 1 μg/ml, 24 hours, nitrite by Griess reaction; read-out: IC50 in inhibition of LPS-induced NO release. It is filed as cell-based. The method, then:
LPS-Stimulated Nitric Oxide (NO) Release in Murine Macrophage RAW264.7 Cells
RAW264.7 cells was cultivated in DMEM supplemented with 10% FBS at 37° C. in a humidified atmosphere of 5% CO2. Cells in 96-well plates (0.1 ml, 3×10^5 cells/ml) were treated with the test compounds. After 30 min, all supernatants were removed and cells were treated with LPS (1 μg/ml) and the test compounds. After 24 hours, the level of nitrite was measured using Griess reaction G2930 (Promega Corp., Madison, Wis.) [see Bredt and Snyder, Ann Rev Biochem 63, 175-195 (1994)]. The test compounds dissolved in DMSO were diluted with culture medium to concentrations from 0.28 to 50,000 nM. The final concentration of DMSO was adjusted to 0.05% (v/v). The nitrite production was measured by spectrophotometry at 520 nm using EnVison 2104 Multilabel Reader (PerkinElmer, Inc., Waltham, Mass.). Each experiment was performed at least in triplicate and plotted using Prism.

The subject of experiment [2] is mRNA transcript levels of cytokines IL-6, IL-1β and TNFα in RAW264.7 cells. Kind of experiment: LPS-induced transcriptional activation of cytokines in murine macrophage cells (quantitative PCR). It is filed as cell-based. The conditions noted are these: Mus musculus. The method, then:
LPS-Induced Transcriptional Activation of Cytokines in Murine Macrophage Cells RAW264.7 cells were cultivated with or without a treatment of the compounds as described above. Total RNA was isolated the cells using TRIzol reagent (Gibco, Grand Island, N.Y.) for homogenization. The concentration and integrity of RNA were determined by measuring absorbance at a 260 nm/280 nm ratio. Quantitative PCR was performed to determine the mRNA transcript levels of cytokines IL-6, IL-1β and TNFα with specific primers for these target genes. Each experiment was performed at least in triplicate, and plotted using Prim, and an IC50 value was calculated.

The target in the next experiment is T1, BRD4_2 (Homo sapiens, UniProt O60885).
T1 construct: contains two tandem bromodomains (BrD1 and BrD2)
Kind of experiment: Fluorescence anisotropy binding assay (competition with FITC-labeled MS417 probe), BRD4_2. The conditions noted are these: FITC-MS417 probe 80 nM, PBS pH 7.4, 1 hour, 25° C.

In experiment [3] the test system is IL-6 secretion in RAW264.7 cells. Kind of experiment: LPS-induced IL-6 secretion in murine macrophage RAW264.7 cells (ELISA). The format is cell-based. Particulars: LPS 1 μg/ml, 24 hours, mouse IL-6 ELISA. On the procedure: LPS-Induced IL-6Secretion In Murine Macrophage Raw264.7 Cells RAW264.7 cells were cultivated in Dulbecco's modified Eagle medium (DMEM) (Hyclone, Logan, Utah) supplemented with 10% FBS (fetal bovine serum) (Hyclone, Logan, Utah) at 37° C. in a humidified atmosphere of 5% CO2. Cells in 96-well plates (0.1 ml, 3×10^5 cells/ml) were treated with the test compounds. After 30 min, all supernatants were removed and cells were treated with LPS (lipopolysaccharide) (1 μg/ml) (Sigma-Aldrich Chemical Co., St. Louis, Mo.) and compounds. After 24 hours, the supernatant was collected and mouse IL-6 protein level was measured using ELISA (enzyme-linked immunosorbent assay) (Thermo Scientific, Pittsburgh, Pa.). The compounds dissolved in DMSO were diluted with culture medium to concentrations from 0.28 to 50,000 nM. The final concentration of DMSO was adjusted to 0.05% (v/v). The assay was measured by an absorption reading at 570 nm using EnVison 2104 Multilabel Reader (PerkinElmer, Inc., Waltham, Mass.). Each experiment was performed at least in triplicate, and plotted using Prim, and an IC50 value was calculated.

In experiment [4] the target is T2, first bromodomain (BrD1) of human BRD4 (Homo sapiens, UniProt O60885).
T2 construct: the first bromodomain (BrD1) of human BRD4; poly-His (cleaved yes); made in house
Kind of experiment: Fluorescence anisotropy binding assay (competition with FITC-labeled MS417 probe). Particulars: FITC-MS417 probe 80 nM, PBS pH 7.4, 1 hour, 25° C., read-out: BRD4_1 IC50. Put shortly: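 Competitive fluorescence anisotropy in PBS pH 7.4: 80 nM FITC-MS417 probe, 0.25 to 1 μM tag-cleaved BrD1, titrated unlabeled ligand, 1 hour at 25° C. IC50 values were fitted and converted to Ki using a corrected Cheng-Prusoff equation assuming one-site competition.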
In general terms: Fluorescence polarisation rises when a labelled molecule tumbles more slowly, as on binding a larger partner.

Experiment [5] concerns T-cell-transfer colitis model in Rag1−/− mice. Kind of experiment: T-cell-transfer colitis study and histopathology. The format is in vivo. From the text:
FIG. 1 is a graph of body weight as percent change from baseline vs time (in weeks) for treated and untreated mice in which inflammatory colitis has been induced.
FIG. 2 is a gray-scale rendering of a photograph showing the gross morphology of the intestines for treated and untreated mice in which inflammatory colitis has been induced compared to a normal (control) intestine.
T-Cell-Transfer Colitis Study and Histopathology
After 5-7 weeks, mice were killed and colon tissues were excised. Tissues were fixed in 10% buffered formalin and paraffin embedded. The sections (5 μm) of tissue samples stained with hematoxylin and eosin. All the slides were read and scored by an experienced pathologist without previous knowledge of the type of treatment. The degree of inflammation in the epithelium, submucosa and muscularis propria was scored separately.

The test system of a further experiment is HIV-1 transgenic mice. Particulars: model for HIV-associated nephropathy; cited from earlier work.

SMILES strings stand for the structures. Where two headings read alike, the source gives them in different places. Bounds are passed on as bounds.

In the case of `COc1ccc(NC(=O)c2ccc(NC3=C(C)C(=O)CC3)c(Cl)c2)cc1` [Example 04-19, 3-chloro-N-(4-methoxyphenyl)-4-((2-methyl-3-oxocyclopent-1-en-1-yl)amino)benzamide], the IC50 (usually the midpoint of a concentration-inhibition curve) was 100 to 5000 nM in experiment [1]; 100 to 5000 nM in experiment [2] (RAW264.7 cells, LPS, quantitative PCR of mRNA transcript levels, read-out: IC50 in inhibition of transcriptional activation of the cytokines IL-6, IL-1β and TNFα); 1000 to 10000 nM on BRD4_2; 200 to 1000 nM in experiment [3]; < 1000 nM in experiment [4]. The development of colitis entry in experiment [5] (CD4+CD45RBhi T cells injected intra-peritoneally into Rag1−/− mice) is “inhibits the development of colitis”. Also, in experiment [5] (after 5-7 weeks, FIG. 2, treated mice vs disease group), the “gross morphology of the intestines” value is listed as “gross morphology of the intestines is preserved”. Moreover, the “loss of body weight” value in experiment [5] (mice weighed every week, FIG. 1) is “significantly (P<0.05) inhibits the loss of body weight”.
On to `CC1=C(Nc2ccc(C(=O)Nc3ccccc3C)cc2Cl)CCC1=O` [Example 04-20, 3-chloro-4-((2-methyl-3-oxocyclopent-1-en-1-yl)amino)-N-(o-tolyl)benzamide], for which the concentration for half-maximal inhibition (IC50) in experiment [1] is 100 to 5000 nM; in experiment [2] (RAW264.7, read-out: IC50 in inhibition of transcriptional activation of the cytokines IL-6, IL-1β and TNFα) it was 100 to 5000 nM; on BRD4_2, 1000 to 10000 nM; in experiment [3], 200 to 1000 nM; in experiment [4] it was < 1000 nM.
Turning to `COC(=O)C[C@@H]1N=C(c2ccc(Cl)cc2)c2c(sc(C)c2C)-n2c(C)nnc21` [MS417], the “inflammation and kidney injury” value with HIV-1 transgenic mice was “effectively ameliorated inflammation and kidney injury”.
